Test results taken from PubChem BioAssay AID248 (DTP/NCI, 2004).
Where “and” joins values, the source holds several entries; their conditions need not be identical. Equal entries are not always repeated. Inconclusive results and toxic doses are left out. No stated cut-off is given here; in the data, active means T/C of 150% or more; inactive means T/C below 125%.

Tested on: L1210 leukemia ip in BDF1 mice, survival T/C
Experiment: NCI In Vivo Anticancer Drug Screen. Data for tumor model L1210 Leukemia (intraperitoneal) in B6D2F1 (BDF1) mice
Conditions: endpoint: mean survival time, higher = longer survival
How it was run: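 Value reflects the ratio of survival in compound-treated mice to survival in vehicle-treated controls, with both groups carrying the same transplanted tumor.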

[1] = dose: 100.0 mg/kg/injection, schedule: Q04DX002 (ip), vehicle: saline with Tween-80
[2] = dose: 200.0 mg/kg/injection, schedule: Q04DX002 (ip), vehicle: saline with Tween-80
[3] = dose: 400.0 mg/kg/injection, schedule: Q04DX002 (ip), vehicle: saline with Tween-80
[4] = dose: 75.0 mg/kg/injection, schedule: Q04DX003 (ip), vehicle: saline
[5] = dose: 75.0 mg/kg/injection, schedule: Q01DX001 (ip), vehicle: saline
[6] = dose: 150.0 mg/kg/injection, schedule: Q01DX001 (ip), vehicle: saline
[7] = dose: 100.0 mg/kg/injection, schedule: Q01DX009 (ip), vehicle: saline sonified
[8] = dose: 200.0 mg/kg/injection, schedule: Q01DX009 (ip), vehicle: saline sonified
[9] = dose: 400.0 mg/kg/injection, schedule: Q01DX009 (ip), vehicle: saline sonified
[10] = dose: 100.0 mg/kg/injection, schedule: Q01DX001 (ip), vehicle: carboxymethylcellulose (CMC)
[11] = dose: 200.0 mg/kg/injection, schedule: Q01DX001 (ip), vehicle: carboxymethylcellulose (CMC)
[12] = dose: 400.0 mg/kg/injection, schedule: Q01DX001 (ip), vehicle: carboxymethylcellulose (CMC)
[13] = dose: 100.0 mg/kg/injection, schedule: Q01DX009 (ip), vehicle: saline with Tween-80
[14] = dose: 200.0 mg/kg/injection, schedule: Q01DX009 (ip), vehicle: saline with Tween-80
[15] = dose: 400.0 mg/kg/injection, schedule: Q01DX009 (ip), vehicle: saline with Tween-80

Measured: T/C

COc1ccc(C=Nc2ccc(C(=O)O)cc2)cc1
inactive: [1] 100 % of control | [2] 110 % of control | [3] 89 % of control

NC(=S)c1ccc(N)cc1
inactive: dose: 12.5 mg/kg/injection, schedule: Q04DX003 (ip), vehicle: saline 105 % of control | dose: 25.0 mg/kg/injection, schedule: Q04DX003 (ip), vehicle: saline 103 % of control | dose: 50.0 mg/kg/injection, schedule: Q04DX003 (ip), vehicle: saline 97 % of control and 102 % of control | [4] 106 % of control | dose: 115.0 mg/kg/injection, schedule: Q04DX003 (ip), vehicle: saline 97 % of control

O=C(COc1ccc(F)cc1)N(CCO)CCO
inactive: dose: 100.0 mg/kg/injection, schedule: Q04DX002 (ip), vehicle: Klucel (hydroxypropylcellulose) (HPC) 96 % of control | dose: 200.0 mg/kg/injection, schedule: Q04DX002 (ip), vehicle: Klucel (hydroxypropylcellulose) (HPC) 92 % of control | dose: 400.0 mg/kg/injection, schedule: Q04DX002 (ip), vehicle: Klucel (hydroxypropylcellulose) (HPC) 114 % of control

[N-]=C=C(C(=O)c1ccccc1)[n+]1cc(Br)cc2ccccc21
inactive: [1] 94 % of control | [2] 94 % of control | [3] 94 % of control

ClCC[n+]1csc2ccccc21
inactive: dose: 10.0 mg/kg/injection, schedule: Q01DX Z (ip), vehicle: saline 91 % of control | dose: 30.0 mg/kg/injection, schedule: Q01DX Z (ip), vehicle: saline 94 % of control | dose: 100.0 mg/kg/injection, schedule: Q01DX Z (ip), vehicle: saline 96 % of control | dose: 300.0 mg/kg/injection, schedule: Q01DX Z (ip), vehicle: saline 110 % of control

O=C(CCl)Oc1c(Cl)c(Cl)c(Cl)c(Cl)c1Cl
inactive: dose: 6.25 mg/kg/injection, schedule: Q04DX003 (ip), vehicle: alcohol 100 % of control | dose: 12.5 mg/kg/injection, schedule: Q04DX003 (ip), vehicle: alcohol 98 % of control | dose: 25.0 mg/kg/injection, schedule: Q04DX003 (ip), vehicle: alcohol 98 % of control | dose: 100.0 mg/kg/injection, schedule: Q04DX003 (ip), vehicle: alcohol 111 % of control

COc1cc2c(cc1OC)C(CC1=C(c3ccccc3)CN3CCc4cc(OC)c(OC)cc4C3C1)NCC2 (centres undefined)
inactive: dose: 4.0 mg/kg/injection, schedule: Q04DX003 (ip), vehicle: water 106 % of control and 102 % of control | dose: 8.0 mg/kg/injection, schedule: Q04DX003 (ip), vehicle: water 98 % of control and 101 % of control | dose: 16.0 mg/kg/injection, schedule: Q04DX003 (ip), vehicle: water 106 % of control and 103 % of control | dose: 32.0 mg/kg/injection, schedule: Q04DX003 (ip), vehicle: water 102 % of control and 96 % of control | dose: 64.0 mg/kg/injection, schedule: Q04DX003 (ip), vehicle: water 96 % of control and 95 % of control | [5] 101 % of control and 97 % of control | [6] 94 % of control and 92 % of control

CCCCCCC#CC(=O)OCCCCC
inactive: [1] 96 % of control | [2] 100 % of control | [3] 96 % of control

O=C(C(Br)C(Br)c1ccccc1)N1CCOCC1 (centres undefined)
inactive: [7] 108 % of control | dose: 100.0 mg/kg/injection, schedule: Q04DX003 (ip), vehicle: saline 109 % of control | [8] 101 % of control | dose: 200.0 mg/kg/injection, schedule: Q04DX003 (ip), vehicle: saline 100 % of control | [9] 95 % of control | dose: 400.0 mg/kg/injection, schedule: Q04DX003 (ip), vehicle: saline 98 % of control

CC(C)c1ccc(/C=C/C(=O)O)cc1
inactive: dose: 50.0 mg/kg/injection, schedule: Q01DX001 (ip), vehicle: carboxymethylcellulose (CMC) 108 % of control | [10] 97 % of control | [11] 92 % of control | [12] 101 % of control

C/C=C(\C)C(N)=Nc1ccc(Cl)c(Cl)c1
inactive: dose: 55.0 mg/kg/injection, schedule: Q01DX Z (ip), vehicle: methylcellulose (MC) 106 % of control | dose: 83.0 mg/kg/injection, schedule: Q01DX Z (ip), vehicle: methylcellulose (MC) 102 % of control | dose: 125.0 mg/kg/injection, schedule: Q01DX Z (ip), vehicle: methylcellulose (MC) 102 % of control

c1ccc(/C(N=NC(c2ccccc2)(c2ccccc2)c2ccccc2)=C(/N=NC(c2ccccc2)(c2ccccc2)c2ccccc2)c2ccccc2)cc1
inactive: [7] 94 % of control | [8] 97 % of control | [9] 94 % of control

CCN(CC)Cc1cc(Nc2ncnc3[nH]c(C)c(C)c23)ccc1O
inactive: dose: 12.5 mg/kg/injection, schedule: Q04DX002 (ip), vehicle: saline with Tween-80 98 % of control | dose: 25.0 mg/kg/injection, schedule: Q04DX002 (ip), vehicle: saline with Tween-80 94 % of control | dose: 50.0 mg/kg/injection, schedule: Q04DX002 (ip), vehicle: saline with Tween-80 88 % of control

CCCCCCCN(CCCCCCC)CC(O)c1cc2ccccc2c2cnccc12 (centres undefined)
inactive: dose: 100.0 mg/kg/injection, schedule: Q01DX009 (ip), vehicle: other 98 % of control | dose: 100.0 mg/kg/injection, schedule: Q04DX003 (ip), vehicle: Klucel (hydroxypropylcellulose) (HPC) 91 % of control | dose: 200.0 mg/kg/injection, schedule: Q01DX009 (ip), vehicle: other 97 % of control | dose: 200.0 mg/kg/injection, schedule: Q04DX003 (ip), vehicle: Klucel (hydroxypropylcellulose) (HPC) 98 % of control | dose: 400.0 mg/kg/injection, schedule: Q04DX003 (ip), vehicle: Klucel (hydroxypropylcellulose) (HPC) 93 % of control

O=C(/C=C\c1ccccc1)N1CCc2ccccc2C1
inactive: [4] 100 % of control | dose: 300.0 mg/kg/injection, schedule: Q04DX003 (ip), vehicle: saline 101 % of control

Cc1ccc(S(=O)(=O)Nc2ccccc2)c(C(O)(c2ccccc2)c2ccccc2)c1
inactive: [13] 91 % of control | [14] 96 % of control | [15] 93 % of control

C#CCOC(=O)Nc1ccc(C)cc1
inactive: [10] 108 % of control | [11] 100 % of control | [12] 118 % of control

O=C1C=C(N2CCCC2)CC1
inactive: [5] 101 % of control | [6] 104 % of control

CC(=O)OC1CCC2(C)C(=CCC3C4C/C(=C\N5CCCC5)C(=O)C4(C)CCC32)C1 (centres undefined)
inactive: dose: 100.0 mg/kg/injection, schedule: Q01DX001 (ip), vehicle: saline with Tween-80 93 % of control | dose: 200.0 mg/kg/injection, schedule: Q01DX001 (ip), vehicle: saline with Tween-80 90 % of control | dose: 400.0 mg/kg/injection, schedule: Q01DX001 (ip), vehicle: saline with Tween-80 90 % of control

CNS(=O)(=O)c1ccc(N)cc1
inactive: dose: 100.0 mg/kg/injection, schedule: Q01DX001 (ip), vehicle: other 107 % of control | [13] 102 % of control | dose: 100.0 mg/kg/injection, schedule: Q04DX003 (ip), vehicle: other 97 % of control | dose: 200.0 mg/kg/injection, schedule: Q01DX001 (ip), vehicle: other 104 % of control | [14] 110 % of control | dose: 200.0 mg/kg/injection, schedule: Q04DX003 (ip), vehicle: other 106 % of control | dose: 400.0 mg/kg/injection, schedule: Q01DX001 (ip), vehicle: other 100 % of control | [15] 98 % of control | dose: 400.0 mg/kg/injection, schedule: Q04DX003 (ip), vehicle: other 108 % of control

O=c1[nH]cnc2n[nH]nc12
inactive: dose: 176.0 mg/kg/injection, schedule: Q01DX009 (ip), vehicle: other 113 % of control | dose: 264.0 mg/kg/injection, schedule: Q01DX009 (ip), vehicle: other 117 % of control | dose: 400.0 mg/kg/injection, schedule: Q01DX009 (ip), vehicle: other 124 % of control

[O-][n+]1ccccc1CCO
inactive: dose: 100.0 mg/kg/injection, schedule: Q04DX002 (ip), vehicle: saline 98 % of control | dose: 200.0 mg/kg/injection, schedule: Q04DX002 (ip), vehicle: saline 106 % of control | dose: 400.0 mg/kg/injection, schedule: Q04DX002 (ip), vehicle: saline 92 % of control

CCCCOP(=O)(OCCCC)SCl
inactive: [1] 95 % of control | [2] 92 % of control

COc1cc2c(cc1OC)N(C(C)=O)Cc1cccn1C2
inactive: dose: 12.5 mg/kg/injection, schedule: Q04DX002 (ip), vehicle: Klucel (hydroxypropylcellulose) (HPC) 94 % of control | dose: 25.0 mg/kg/injection, schedule: Q04DX002 (ip), vehicle: Klucel (hydroxypropylcellulose) (HPC) 94 % of control | dose: 50.0 mg/kg/injection, schedule: Q04DX002 (ip), vehicle: Klucel (hydroxypropylcellulose) (HPC) 94 % of control
